# Source: patent publication US20250099491A1, “PREVENTION OR TREATMENT OF CARDIOVASCULAR DISEASES WITH HIGH PENETRATION PRODRUGS OF ASPIRIN AND OTHER NSAIDS” (Techfields Inc., priority 2022, published 2025)
# Tested on: patients with ischemic strokes
# Experiment: Phase 2 clinical study of spray in patients with ischemic strokes
# Assay type: in vivo, human
# Details: for RICA (near-wall): Maximal IMT of right internal carotid artery / LCCA (far-wall): Maximal IMT of left common carotid artery / LCCA (near-wall): Maximal IMT of left common carotid artery / LICA (far-wall): Maximal IMT of left internal carotid artery / LICA (near-wall): Maximal IMT of left internal carotid artery / RCCA (far-wall): Maximal IMT of right common carotid artery / RCCA (near-wall): Maximal IMT of right common carotid artery / RICA (far-wall): Maximal IMT of right internal carotid artery: ultrasonography
# Method: Each patient enrolled in Group A was administered the investigational drug in a double-blind manner for 16 weeks starting between 3 and 60 days after the onset of stroke symptoms (Day 1 of the study). The patients and/or their caregivers were instructed how to apply the investigational drug accurately so that patients or their caregivers would administer 20 sprays/dose of either the investigational drug or placebo twice daily (approximately every 12 hours) for a total daily dose of 280 mg of investigational drug. The 20 sprays of investigational drug were administered as follows: 4 sprays around the neck, 2 sprays to the left shoulder, 2 sprays to the right shoulder, 6 sprays to the chest, 3 sprays to the left leg, and 3 sprays to the right leg. Each spray was sprayed on a different area of the skin to reach maximum absorption. The patient would wait for at least 5 minutes to dress after the last spray so that the skin became completely dry.
# Patients were asked to return to the study site at Weeks 4, 8, 12, and 16 for efficacy and safety assessments. After the Week 16 assessments had been performed, patients would start the open-label period of the study the next day and receive active treatment in an open-label manner through the end of the study (EOS) at Week 32. That is, patients who were receiving active treatment would continue to receive active treatment, and patients who were receiving placebo would switch to active treatment for the remaining 16 weeks of the study. Patients would receive only 1 dose of investigational drug on the Week 16 visit day. Patients would return to the study site at Week 24 and Week 32 (EOS) for efficacy and safety assessments. An Early Termination visit would occur if the patient was discontinued from the study prematurely. Patients would have a follow-up visit approximately 14 days after the Early Termination visit or the Week 32 (EOS) visit.
# The spray bottle deposits […] of spray solution and 7 mg 2-(diethylamino)ethyl acetoxybenzoate free base per spray on the skin. Subjects were to apply each spray to a different skin area around the neck, chest, legs and arms based on the randomized dose level assigned.
# The treatment was administered twice daily (approximately every 12 hours) starting on Day 1 of the study through the Week 16 visit. Each spray was sprayed on a different area of the skin to reach maximum absorption.
# Group A administered the 20 sprays of investigational drug as follows: 4 sprays around the neck, 2 sprays to the left shoulder, 2 sprays to the right shoulder, 6 sprays to the chest, 3 sprays to the left leg, and 3 sprays to the right leg twice daily for a total of 40 sprays (280 mg)/day. Each spray was sprayed on a different area of the skin to reach maximum absorption.
# (§1) Group B administered the investigational drug as follows: 2 sprays to the front of the neck, 1 spray to the left side of the neck, 1 spray to the right side of the neck, 6 sprays to the chest close to the neck twice daily for a total of 20 sprays (140 mg)/day. Each spray was sprayed on a different area of the skin to reach maximum absorption.
# as §1, with “C” for “B”, “1 spray” for “2 sprays”, “2” for “6”, “chest” for “chest close to the neck”, “10” for “20”, “(70 mg/day).” for “(140 mg)/day.”
# The primary efficacy endpoint is the mRS score at Week 16 dichotomized as ‘success’ (0 to 2) or failure (>2) for all randomized patients at Week 16.
# The mRS score was assessed at screening; Day 1 (baseline); Weeks 4, 8, 12, 16, 24, and 32; Early Termination Visit (if applicable) and Follow-Up Visit.
# The mRS score measures the patient's functional level of activity and is dichotomized as a favorable outcome (score=0-2) versus unfavorable (score […]). […]
# [1] = 10 Sprays (70 mg/dose bid), Week 24
# [2] = 10 Sprays (70 mg/dose bid), Week 32
# [3] = 10 Sprays (70 mg/dose bid), baseline
# [4] = 20 Sprays (140 mg/dose bid), Baseline
# [5] = 20 Sprays (140 mg/dose bid), Week 4
# [6] = 20 Sprays (140 mg/dose bid), Week 8
# [7] = 20 Sprays (140 mg/dose bid), Week 16
# [8] = 20 Sprays (140 mg/dose bid), Week 24
# [9] = 20 Sprays (140 mg/dose bid), Week 32
# [10] = 20 Sprays (140 mg/dose bid), baseline
# [11] = during the study, all three doses
compound,measurement,setting,value
CCN(CC)CCOC(=O)c1ccccc1OC(C)=O.Cl [Compound-1],RICA (near-wall): Maximal IMT of right internal carotid artery,"10 Sprays (70 mg/dose bid), Week 16",0.9 ± 0.5 mm
same,Modified Rankin Scale Score (mRS),[1],1.5 ± 0.5
same,National Institute of Health Stroke Scale,[1],1.6 ± 0.6
same,Modified Rankin Scale Score (mRS),[2],1.4 ± 0.5
same,National Institute of Health Stroke Scale,[2],1.3 ± 0.4
same,LCCA (far-wall): Maximal IMT of left common carotid artery,[2],1.7 ± 0.8 mm
same,LCCA (near-wall): Maximal IMT of left common carotid artery,[2],1.2 ± 0.6 mm
same,LICA (far-wall): Maximal IMT of left internal carotid artery,[2],0.6 ± 0.3 mm
same,LICA (near-wall): Maximal IMT of left internal carotid artery,[2],0.7 ± 0.4 mm
same,RCCA (far-wall): Maximal IMT of right common carotid artery,[2],1.3 ± 0.8 mm
same,RCCA (near-wall): Maximal IMT of right common carotid artery,[2],1.3 ± 0.7 mm
same,RICA (far-wall): Maximal IMT of right internal carotid artery,[2],0.8 ± 0.2 mm
same,RICA (near-wall): Maximal IMT of right internal carotid artery,[2],0.7 ± 0.4 mm
same,Modified Rankin Scale Score (mRS),[3],3.5 ± 0.5
same,National Institute of Health Stroke Scale,[3],5.9 ± 2.0
same,LCCA (far-wall): Maximal IMT of left common carotid artery,[4],6.5 ± 2.0 mm
same,LCCA (near-wall): Maximal IMT of left common carotid artery,[4],7.6 ± 1.6 mm
same,LICA (far-wall): Maximal IMT of left internal carotid artery,[4],5.7 ± 1.7 mm
same,LICA (near-wall): Maximal IMT of left internal carotid artery,[4],5.6 ± 1.7 mm
same,RCCA (far-wall): Maximal IMT of right common carotid artery,[4],8.8 ± 2.3 mm
same,RCCA (near-wall): Maximal IMT of right common carotid artery,[4],7.5 ± 1.8 mm
same,RICA (far-wall): Maximal IMT of right internal carotid artery,[4],4.7 ± 1.6 mm
same,RICA (near-wall): Maximal IMT of right internal carotid artery,[4],4.9 ± 1.3 mm
same,Modified Rankin Scale Score (mRS),[5],2.1 ± 0.5
same,National Institute of Health Stroke Scale,[5],4.6 ± 1.6
same,Modified Rankin Scale Score (mRS),[6],1.8 ± 0.4
same,National Institute of Health Stroke Scale,[6],3.0 ± 1.1
same,Modified Rankin Scale Score (mRS),[7],1.4 ± 0.5
same,National Institute of Health Stroke Scale,[7],1.9 ± 0.9
same,LCCA (far-wall): Maximal IMT of left common carotid artery,[7],1.2 ± 0.6 mm
same,LCCA (near-wall): Maximal IMT of left common carotid artery,[7],1.3 ± 0.5 mm
same,LICA (far-wall): Maximal IMT of left internal carotid artery,[7],0.6 ± 0.4 mm
same,LICA (near-wall): Maximal IMT of left internal carotid artery,[7],0.7 ± 0.3 mm
same,RCCA (far-wall): Maximal IMT of right common carotid artery,[7],1.4 ± 0.3 mm
same,RCCA (near-wall): Maximal IMT of right common carotid artery,[7],1.2 ± 0.5 mm
same,RICA (far-wall): Maximal IMT of right internal carotid artery,[7],0.6 ± 0.2 mm
same,RICA (near-wall): Maximal IMT of right internal carotid artery,[7],0.8 ± 0.3 mm
same,Modified Rankin Scale Score (mRS),[8],1.3 ± 0.5
same,National Institute of Health Stroke Scale,[8],1.4 ± 0.6
same,Modified Rankin Scale Score (mRS),[9],1.3 ± 0.4
same,National Institute of Health Stroke Scale,[9],1.1 ± 0.3
same,LCCA (far-wall): Maximal IMT of left common carotid artery,[9],1.1 ± 0.7 mm
same,LCCA (near-wall): Maximal IMT of left common carotid artery,[9],0.8 ± 0.5 mm
same,LICA (far-wall): Maximal IMT of left internal carotid artery,[9],0.5 ± 0.3 mm
same,LICA (near-wall): Maximal IMT of left internal carotid artery,[9],0.6 ± 0.3 mm
same,RCCA (far-wall): Maximal IMT of right common carotid artery,[9],1.0 ± 0.5 mm
same,RCCA (near-wall): Maximal IMT of right common carotid artery,[9],0.9 ± 0.4 mm
same,RICA (far-wall): Maximal IMT of right internal carotid artery,[9],0.5 ± 0.3 mm
same,RICA (near-wall): Maximal IMT of right internal carotid artery,[9],0.6 ± 0.5 mm
same,Modified Rankin Scale Score (mRS),[10],3.6 ± 0.5
same,National Institute of Health Stroke Scale,[10],6.1 ± 2.3
same,Mean and median blood pressures,[11],remained unchanged
same,"upper GI tract ulcer complication (bleeding episode, perforation, or gastric outlet obstruction)",[11],No notable
same,"skin irritation, total incidences","mild, all three doses",6
same,improvement of atherosclerosis,"neck arteries by ultrasonography, spray vs placebo",can reverse atherosclerosis
same,"functional recovery post strokes (results of BI, words)",spray vs placebo,can improve the functional recovery post strokes
same,"functional recovery post strokes (results of NIHSS, words)",spray vs placebo,can improve the functional recovery post strokes
same,"functional recovery post strokes (results of mRS, words)",spray vs placebo,can improve the functional recovery post strokes
same,"Gastrointestinal disorders, incidences in the study","very mild, none appeared to be drug related, all three doses",15
